Drawing on patent US20260250290A1 (BRISTOL-MYERS SQUIBB COMPANY, priority 2023, published 2026), this text covers IC50 for 25 molecules.

Where a name gives a salt, the structure may show the parent alone.

In general, IC50 refers to the point on the concentration scale where inhibition reaches its midpoint.

The assay has as its target T1, full length SGK1 (Homo sapiens, UniProt O00141).
T1 construct: 125 μM full length SGK1 (Life Technologies Part #PR7358A); purchased Life Technologies PR7358A
T1 sequence (O00141 1-431): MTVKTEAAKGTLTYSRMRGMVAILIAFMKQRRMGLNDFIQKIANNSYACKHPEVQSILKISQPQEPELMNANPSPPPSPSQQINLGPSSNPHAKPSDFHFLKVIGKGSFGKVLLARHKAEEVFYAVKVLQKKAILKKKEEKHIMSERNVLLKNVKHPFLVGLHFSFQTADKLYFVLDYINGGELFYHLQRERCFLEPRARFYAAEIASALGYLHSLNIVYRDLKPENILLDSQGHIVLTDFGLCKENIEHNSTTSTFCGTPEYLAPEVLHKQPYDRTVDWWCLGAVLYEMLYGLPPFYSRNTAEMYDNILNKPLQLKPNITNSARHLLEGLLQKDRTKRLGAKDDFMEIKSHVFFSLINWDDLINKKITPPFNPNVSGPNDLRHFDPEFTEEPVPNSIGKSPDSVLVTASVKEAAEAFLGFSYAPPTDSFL
The assay can be described thus: SGK1 inhibition Assay A (Caliper LabChip electrophoretic separation of fluorescent peptide substrate and phosphorylated product). The following applies: Assay A; 20 μM ATP, 40 min incubation; read-out: SGK1 IC50. Type of assay: biochemical.
In the case of `N#Cc1ccc(-c2cc(N3CCC[C@@H](NC(=O)c4sc(Cl)cc4OC4CCNC4)C3)c3c(N)ncnn23)cn1` (stereo partly drawn) [Example 637, N-((R)-1-(4-amino-7-(6-cyanopyridin-3-yl)pyrrolo[2,1-f][1,2,4]triazin-5-yl)piperidin-3-y1)-5-chloro-3-(pyrrolidin-3-yloxy)thiophene-2-carboxamide], the half-inhibitory concentration (IC50) was 12 nM.
To `N#Cc1ccc(-c2cc(N3CCC[C@@H](NC(=O)c4ccc(Cl)s4)C3)c3c(N)ncnn23)s1` [Example 212, (R)-N-(1-(4-amino-7-(5-cyanothiophen-2-yl)pyrrolo[2,1-f][1,2,4]triazin-5-yl)piperidin-3-yl)-5-chlorothiophene-2-carboxamide, TFA] belongs 6 nM; to `CC(=O)N1CC=C(c2cc(N3CCC[C@@H](NC(=O)c4ccccn4)C3)c3c(N)ncnn23)C1` [Example 728, (R)-N-(1-(7-(1-acetyl-2,5-dihydro-1H-pyrrol-3-yl)-4-aminopyrrolo[2,1-f][1,2,4]triazin-5-yl)piperidin-3-yl)picolinamide], 81 nM.
Under “(R)-N-(1-(7-(1-acetyl-2,5-dihydro-1H-pyrrol-3-yl)-4-aminopyrrolo[2,1-f][1,2,4]triazin-5-yl)piperidin-3-yl)-5-chloro-3-(piperidin-4-yloxy)thiophene-2-carboxamide [Example 575]” stands 1 nM; under `CN(C)CCOc1cc(C(F)F)sc1C(=O)N[C@@H]1CCCN(c2cc(-c3ccc(=O)n(CC(F)F)c3)n3ncnc(N)c23)C1` [Example 309, (R)-N-(1-(4-amino-7-(1-(2,2-difluoroethyl)-6-oxo-1,6-dihydropyridin-3-yl)pyrrolo[2,1-f][1,2,4]triazin-5-yl)piperidin-3-yl)-5-(difluoromethyl)-3-(2-(dimethylamino)ethoxy)thiophene-2-carboxamide], 17 nM; under `CC(=O)N1CC=C(c2cc(N3CCC[C@@H](NC(=O)c4cc(C(C)C)[nH]n4)C3)c3c(N)ncnn23)C1` [Example 458, (R)-N-(1-(7-(1-acetyl-2,5-dihydro-1H-pyrrol-3-yl)-4-aminopyrrolo[2,1-f][1,2,4]triazin-5-yl)piperidin-3-yl)-5-isopropyl-1H-pyrazole-3-carboxamide], 3 nM.
To `CS(=O)(=O)c1ccc(-c2cc(N3CCC[C@@H](NC(=O)c4ccno4)C3)c3c(N)ncnn23)cc1` [Example 64, (R)-N-(1-(4-amino-7-(4-(methylsulfonyl)phenyl)pyrrolo[2,1-f][1,2,4]triazin-5-yl)piperidin-3-yl)isoxazole-5-carboxamide] belongs 285 nM; to `Nc1ncnn2c(C3=CCN(C(=O)[C@@H]4CCCO4)C3)cc(N3CCC[C@@H](NC(=O)c4ccc(Cl)s4)C3)c12` [Example 903, N-((R)-1-(4-amino-7-(1-((S)-tetrahydrofuran-2-carbony1)-2,5-dihydro-1H-pyrrol-3-yl)pyrrolo[2,1-f][1,2,4]triazin-5-yl)piperidin-3-y1)-5-chlorothiophene-2-carboxamide], 8 nM.
`Nc1ccc2[nH]nc(C(=O)N[C@@H]3CCCN(c4cc(-c5cncnc5)n5ncnc(N)c45)C3)c2c1` [Example 690, (R)-5-amino-N-(1-(4-amino-7-(pyrimidin-5-yl)pyrrolo[2,1-f][1,2,4]triazin-5-yl)piperidin-3-yl)-1H-indazole-3-carboxamide]: the IC50 worked out at 507 nM.
To `COC(=O)N1CC=C(c2cc(N3CCC[C@@H](NC(=O)c4sc5ccccc5c4OC4CCNCC4)C3)c3c(N)ncnn23)C1` [Example 652, methyl (R)-3-(4-amino-5-(3-(3-(piperidin-4-yloxy)benzo[b]thiophene-2-carboxamido)piperidin-1-yl)pyrrolo[2,1-f][1,2,4]triazin-7-yl)-2,5-dihydro-1H-pyrrole-1-carboxylate] belongs 10 nM; to `CN1CCN(c2cccc(C(=O)N[C@@H]3CCCN(c4cc(-c5cnn(C6CCOC6)c5)n5ncnc(N)c45)C3)n2)CC1` (stereo partly drawn) [Example 803, N-((3R)-1-(4-amino-7-(1-(tetrahydrofuran-3-yl)-1H-pyrazol-4-yl)pyrrolo[2,1-f][1,2,4]triazin-5-yl)piperidin-3-yl)-6-(4-methylpiperazin-1-yl)picolinamide], 2050 nM; to `CC(=O)NCCOc1cc(Cl)sc1C(=O)N[C@@H]1CCCN(c2cc(C3=CCN(C(C)=O)C3)n3ncnc(N)c23)C1` [Example 328, (R)-3-(2-acetamidoethoxy)-N-(1-(7-(1-acetyl-2,5-dihydro-1H-pyrrol-3-yl)-4-aminopyrrolo[2,1-f][1,2,4]triazin-5-yl)piperidin-3-yl)-5-chlorothiophene-2-carboxamide], 3 nM.
Under `COC(=O)CN1CC=C(c2cc(N3CCC[C@@H](NC(=O)c4ccc(Cl)s4)C3)c3c(N)ncnn23)C1` [Example 911, methyl (R)-2-(3-(4-amino-5-(3-(5-chlorothiophene-2-carboxamido)piperidin-1-yl)pyrrolo[2,1-f][1,2,4]triazin-7-yl)-2,5-dihydro-1H-pyrrol-1-yl)acetate] stands 70 nM.
Under `Cc1cc(CN2CCN(C)CC2)c(C(=O)N[C@@H]2CCCN(c3cc(-c4ccnc(F)c4)n4ncnc(N)c34)C2)s1` [Example 200, (R)—N-(1-(4-amino-7-(2-fluoropyridin-4-yl)pyrrolo[2,1-f][1,2,4]triazin-5-yl)piperidin-3-yl)-5-methyl-3-((4-methylpiperazin-1-yl)methyl)thiophene-2-carboxamide] stands 15 nM; under `CC(=O)N1CC=C(c2cc(N3CCC[C@@H](NC(=O)c4sc5ccccc5c4OC4CN(C(=O)OC(C)(C)C)C4)C3)c3c(N)ncnn23)C1` [Example 673, tert-butyl (R)-3-((2-((1-(7-(1-acetyl-2,5-dihydro-1H-pyrrol-3-yl)-4-aminopyrrolo [2,1-f][1,2,4]triazin-5-yl)piperidin-3-yl)carbamoyl)benzo[b]thiophen-3-yl)oxy)azetidine-1-carboxylate], 96 nM; under `CN1CCC(Oc2cc(Cl)sc2C(=O)N[C@@H]2CCCN(c3cc(-c4ccc(C(N)=O)c(F)c4)n4ncnc(N)c34)C2)CC1` [Example 589, (R)-N-(1-(4-amino-7-(4-carbamoyl-3-fluorophenyl)pyrrolo[2,1-f][1,2,4]triazin-5-yl)piperidin-3-yl)-5-chloro-3-((1-methylpiperidin-4-yl)oxy)thiophene-2-carboxamide], 2 nM.
Consider `Nc1ncnn2c(-c3cc(F)c(O)c(F)c3)cc(N3CCC[C@@H](NC(=O)c4ccc(Cl)s4)C3)c12` [Example 206, (R)-N-(1-(4-amino-7-(3,5-difluoro-4-hydroxyphenyl)pyrrolo [2,1-f][1,2,4]triazin-5-yl)piperidin-3-yl)-5-chlorothiophene-2-carboxamide], for which the IC50 is 12 nM.
Under `CCn1cc(-c2cc(N3CCC[C@@H](NC(=O)c4cccc(N5CCN(C)CC5)n4)C3)c3c(N)ncnn23)ccc1=O` [Example 799, (R)-N-(1-(4-amino-7-(1-ethyl-6-oxo-1,6-dihydropyridin-3-yl)pyrrolo[2,1-f][1,2,4]triazin-5-yl)piperidin-3-yl)-6-(4-methylpiperazine-1-yl)picolinamide] stands 3 nM.
Regarding `COC(=O)N1CC=C(c2cc(N3CCC[C@@H](NC(=O)c4cc5cc(F)ccc5[nH]4)C3)c3c(N)ncnn23)C1` [Example 499, methyl (R)-3-(4-amino-5-(3-(5-fluoro-1H-indole-2-carboxamido)piperidin-1-yl)pyrrolo[2,1-f][1,2,4]triazin-7-yl)-2,5-dihydro-1H-pyrrole-1-carboxylate], the IC50 turned out to be 121 nM.
As to `COc1cc(C(=O)N[C@@H]2CCCN(c3cc(C4=CN(S(C)(=O)=O)CC4)n4ncnc(N)c34)C2)ccn1` [Example 115, (R)—N-(1-(4-amino-7-(1-(methylsulfonyl)-4,5-dihydro-1H-pyrrol-3-yl)pyrrolo[2,1-f][1,2,4]triazin-5-yl)piperidin-3-yl)-2-methoxyisonicotinamide], the IC50 was 103 nM.
As to `CC(C)N1CCC(c2cc(C(F)F)sc2C(=O)N[C@@H]2CCCN(c3cc(-c4ccc(C(N)=O)nc4)n4ncnc(N)c34)C2)C1` (stereo partly drawn) [Example 404, 5-(4-amino-5-((3R)-3-(5-(difluoromethyl)-3-(1-isopropylpyrrolidin-3-yl)thiophene-2-carboxamido)piperidin-1-yl)pyrrolo[2,1-f][1,2,4]triazin-7-yl)picolinamide], the IC50 stood at 254 nM.
Under `CS(=O)(=O)c1ccc(-c2cc(N3CCC[C@@H](NC(=O)c4cn5c(n4)CCCC5)C3)c3c(N)ncnn23)cc1` [Example 44] stands 735 nM.
With `CC(=O)N1CC=C(c2cc(N3CCCC(NC(=O)c4sc(C(F)F)cc4OC4CCN(C(C)C)CC4)C3)c3c(N)ncnn23)C1` (stereo not shown) [compound 442], the IC50 amounted to 14 nM.
To `CC(=O)N1CC=C(c2cc(N3CCC[C@@H](NC(=O)c4cccnc4OCCN(C)C)C3)c3c(N)ncnn23)C1` [Example 723, (R)-N-(1-(7-(1-acetyl-2,5-dihydro-1H-pyrrol-3-yl)-4-aminopyrrolo[2,1-f][1,2,4]triazin-5-yl)piperidin-3-yl)-2-(2-(dimethylamino)ethoxy) nicotinamide] belongs 267 nM; to `CC(=O)N1CC=C(c2cc(N3CCC[C@@H](NC(=O)c4ccc(-c5ccccc5)o4)C3)c3c(N)ncnn23)C1` [Example 454, (R)-N-(1-(7-(1-acetyl-2,5-dihydro-1H-pyrrol-3-yl)-4-aminopyrrolo[2,1-f][1,2,4]triazin-5-yl)pipridin-3-yl)-5-phenylfuran-2-carboxamide], 1 nM.
